Measured values from patent US20060084684A1, “Topically applicable pharmaceutical preparation” (Altana Pharma AG, priority 2002, published 2006).
In brackets after ≈: the same amount, converted by molar mass.

Tests used:
[1] = Kinetic parameters after oral administration (comparison); type: in vivo, rat
Description: Comparison with kinetic parameters after oral administration of 1 mg/kg: […]

Solubility in water = type: physicochemical; details: at 21° C.
Text: For treating disorders of the skin it Is desirable to provide the active pharmaceutical ingredient in a pharmaceutical preparation suitable for topical application.

excretion with the urine ([1]; oral administration): 18.4 % of the dose
AUC(0-24 h) ([1]; oral administration of 1 mg/kg): 3.10 mg equiv./l×h
Cmax ([1]; oral administration of 1 mg/kg): 0.225 mg equiv./l
solubility (Solubility in water): 0.53 µg/mL (≈ 1.31 µM)
Structure (SMILES): O=C(Nc1c(Cl)cncc1Cl)c1ccc(OC(F)F)c(OCC2CC2)c1 [roflumilast, N-(3,5-dichloropyrid-4-yl)-3-cyclopropylmethoxy-4-difluoromethoxybenzamide]
